Experimental data published in the supplement of paper PMC11628255, “Interference of metal ions on the bioluminescent signal of firefly, Renilla, and NanoLuc luciferases in high-throughput screening assays” (Frontiers in Chemistry, 2024).

Key:
Experiment in all cases: normalised percent inhibition of luminescence (vs positive and negative controls); higher = stronger inhibition
[1] = system: NanoLuc luciferase (NLuc)
Method: (§1)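 Concentration-response (>=11 concentrations) of metal salts on purified FLuc, NLuc or RLuc luminescence in screening (SC) or 100 mM HEPES (H) buffer; salt pre-incubated with enzyme 10 min at RT, read 10 min after substrate. Normalised percent inhibition vs plate positive (PTC-124, isradipine, BTS) and DMSO negative controls; triplicate wells.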

[2] = system: Renilla luciferase (RLuc)
Method: as §1

[3] = system: firefly luciferase (FLuc)
Method: as §1

O=[N+]([O-])[O-].O=[N+]([O-])[O-].[Cu+2] [copper(II) nitrate]
normalised percent inhibition [%]
Settings | [1] | [2] | [3]
metal salt concentration 0.0001 mM, 100 mM HEPES buffer | -0.372 | -51.9 | 87.3
metal salt concentration 0.00025 mM, 100 mM HEPES buffer | -0.297 | -48.5 | 98.97
metal salt concentration 0.0005 mM, 100 mM HEPES buffer | 1.75 | -45.4 | 100.2
metal salt concentration 0.001 mM, 100 mM HEPES buffer | 0.0805 | -40 | 100.5
metal salt concentration 0.002 mM, screening conditions buffer | 14.1 | -3.55 | –
metal salt concentration 0.005 mM, screening conditions buffer | 18.8 | -13.6 | –
metal salt concentration 0.01 mM, 100 mM HEPES buffer | 7.71 | 62.8 | –
metal salt concentration 0.01 mM, screening conditions buffer | 65.1 | -1.01 | –
metal salt concentration 0.02 mM, screening conditions buffer | 133 | -23.7 | –
metal salt concentration 0.025 mM, 100 mM HEPES buffer | 59.8 | 105 | 100.3
metal salt concentration 0.05 mM, 100 mM HEPES buffer | 95.4 | 106 | 100.6
metal salt concentration 0.05 mM, screening conditions buffer | 135.6 | -13 | –
metal salt concentration 0.1 mM, 100 mM HEPES buffer | 99.6 | 106.6 | 100.5
metal salt concentration 0.1 mM, screening conditions buffer | 136.5 | -8.47 | –
metal salt concentration 0.2 mM, screening conditions buffer | 136.6 | 105.7 | –
metal salt concentration 0.5 mM, 100 mM HEPES buffer | 101.5 | 105 | 100.5
metal salt concentration 0.5 mM, screening conditions buffer | 137.2 | 107 | –
metal salt concentration 1 mM, 100 mM HEPES buffer | 101.9 | – | 100.4
metal salt concentration 1 mM, screening conditions buffer | 137.4 | 105.8 | –
metal salt concentration 2.5 mM, 100 mM HEPES buffer | 101 | – | 100.4
metal salt concentration 2.5 mM, screening conditions buffer | 137.3 | 105.7 | –
metal salt concentration 5 mM, 100 mM HEPES buffer | 102.11 | – | 99.95
metal salt concentration 5 mM, screening conditions buffer | 137.49 | 106.3 | –

[Cl][Sn][Cl] [tin(II) chloride]
normalised percent inhibition [%]
Settings | [1] | [2] | [3]
metal salt concentration 0.0001 mM, 100 mM HEPES buffer | -1.04 | -43.6 | -37.6
metal salt concentration 0.00025 mM, 100 mM HEPES buffer | -2.95 | -34 | -36.8
metal salt concentration 0.0005 mM, 100 mM HEPES buffer | -1.03 | -29.8 | -25.8
metal salt concentration 0.001 mM, 100 mM HEPES buffer | -2.16 | -28.6 | -45.1
metal salt concentration 0.002 mM, screening conditions buffer | 1.6 | 2.49 | -6.84
metal salt concentration 0.005 mM, screening conditions buffer | 4.64 | -3.55 | -10.8
metal salt concentration 0.01 mM, screening conditions buffer | 3.42 | 13.4 | 6.44
metal salt concentration 0.02 mM, screening conditions buffer | -0.105 | -6.49 | 1.32
metal salt concentration 0.025 mM, 100 mM HEPES buffer | -3.24 | -15.8 | -26.1
metal salt concentration 0.05 mM, 100 mM HEPES buffer | 6.37 | -15 | -13.9
metal salt concentration 0.05 mM, screening conditions buffer | -1.81 | -5.21 | 19.1
metal salt concentration 0.1 mM, 100 mM HEPES buffer | -5.15 | -35 | -9.51
metal salt concentration 0.1 mM, screening conditions buffer | 1.62 | -1.32 | 56.5
metal salt concentration 0.2 mM, screening conditions buffer | 6.52 | -3.23 | 99.33
metal salt concentration 0.5 mM, 100 mM HEPES buffer | -1.5 | -38.9 | 11.7
metal salt concentration 0.5 mM, screening conditions buffer | 8.42 | -6.09 | 100.6
metal salt concentration 1 mM, 100 mM HEPES buffer | -2.37 | -53 | 37.6
metal salt concentration 1 mM, screening conditions buffer | 20.2 | -5.29 | 100.2
metal salt concentration 2.5 mM, 100 mM HEPES buffer | -3.02 | -45.3 | 63.9
metal salt concentration 2.5 mM, screening conditions buffer | 93.83 | -6.8 | 100.4
metal salt concentration 5 mM, 100 mM HEPES buffer | 11.3 | 79.9 | 100.7
metal salt concentration 5 mM, screening conditions buffer | 137.11 | 103 | 100.5
